According to patent publication US8530493B2, “Indolopyridines as Eg5 kinesin modulators” (4SC AG, priority 2006, dated 2013):

Test system: RKO p21 uninduced (proliferating) colon adenocarcinoma cells
Assay: Alamar Blue cell viability assay, RKO p21 uninduced (proliferating)
Assay type: cell-based
Conditions: Homo sapiens, Table B3, anti-proliferative/cytotoxic activity, 72 hours, read-out: −log EC50 RKO p21 uninduced (proliferating) (converted)
Procedure: The anti-proliferative/cytotoxic activity of the compounds described herein can be tested on subclones of RKO human colon adenocarcinoma cells (Schmidt et al., Oncogene 19, 2423-2429; 2000) using the Alamar Blue cell viability assay (described in O'Brien et al. Eur J Biochem 267, 5421-5426, 2000). The compounds are dissolved as 10 mM solutions in DMSO and subsequently diluted in semi-logarithmic steps. DMSO dilutions are further diluted 1:100 into Dulbecco's modified Eagle's medium (DMEM) containing 10% fetal calf serum to a final concentration twice as much as the final concentration in the test. RKO subclones are seeded into 96 well flat bottom plates at a density of 4000 cells per well in a volume of 50 μl per well. 24 hours after seeding the 50 μl each of the compound dilutions in DMEM medium are added into each well of the 96 well plate. Each compound dilution is tested as triplicates. Wells containing untreated control cells are filled with 50 μl DMEM medium containing 1% DMSO. The cells are then incubated with the substances for 72 hours at 37° C. in a humidified atmosphere containing 5% carbon dioxide. To determine the viability of the cells, 10 μl of an Alamar Blue solution (Biosource) are added and the fluorescence is measured at an extinction of 544 nm and an emission of 590 nm. For the calculation of the cell viability the emission value from untreated cells is set as 100% viability and the emission rates of treated cells are set in relation to the values of untreated cells. Viabilities are expressed as % values. The Graphpad Prism program is used for the calculation of EC50 values for anti-proliferative/cytotoxic activity out of the obtained dose-response curves.
To determine the cell cycle specific mode of action, subclones of RKO colon adenocarcinoma cells (RKOp21 or RKOp27 as described by Schmidt et al. in Oncogene 19, 2423-2429; 2000) are seeded into 96 well flat bottom plates at a density of 16000 cells per well in a volume of 50 μl per well in DMEM growth medium with 10% FCS containing 10 μM Ponasterone A. 24 hours after seeding the 50 μl each of the compound dilutions in DMEM medium are added into each well of the 96-well plate. Each compound dilution is tested as triplicates. Wells containing untreated control cells are filled with 50 μl DMEM medium containing 1% DMSO. The cells are then incubated with the substances for 72 hours at 37° C. in a humidified atmosphere containing 5% carbon dioxide. To determine the viability of the cells, 10 μl of an Alamar Blue solution (Biosource) are added and the fluorescence is measured at an extinction of 544 nm and an emission of 590 nm. For the calculation of the cell viability the emission value from untreated cells is set as 100% viability and the emission rates of treated cells are set in relation to the values of untreated cells. Viabilities are expressed as % values. The Graphpad Prism program (GraphPad Software, Inc) is used for the calculation of EC50 values out of the obtained dose-response curves. Viability is compared of proliferating cells grown in the absence of the inducer Ponasterone A, versus viability of cells arrested by the expression of ectopic p27Kip1 induced by Ponasterone A.
Representative values for anti-proliferation/cytotoxicity [measured as −log EC50 (mol/l)] determined in the aforementioned assays follow from the following tables B1, B2 and B3, in which the numbers of the compounds correspond to the numbers of the examples.

Compound | EC50 [nM]
COc1ccc2[nH]c3c(c2c1)C[C@@]1(C)C(=O)N(CCCN2CCN(C)CC2)C(=O)N1[C@@H]3c1cccc(O)c1 (racemic) [Example 150, (3aSR,10RS)-10-(3-Hydroxy-phenyl)-6-methoxy-3a-methyl-2-[3-(4-methyl-piperazin-1-yl)-propyl]-3a,4,9,10-tetrahydro-2,9,10a-triaza-cyclopenta[b]fluorene-1,3-dione] | ≤ 39.8
COc1ccc2[nH]c3c(c2c1)C[C@@]1(C)C(=O)N(CCCN2CCN(C(C)=O)CC2)C(=O)N1[C@@H]3c1cccc(O)c1 (racemic) [Example 151, (3aSR,10RS)-2-[3-(4-Acetyl-piperazin-1-yl)-propyl]-10-(3-hydroxy-phenyl)-6-methoxy-3a-methyl-3a,4,9,10-tetrahydro-2,9,10a-triaza-cyclopenta[b]fluorene-1,3-dione] | 39.8 to 251
CCOc1ccc2[nH]c3c(c2c1)C[C@@]1(C)C(=O)N(CCNC(C)C)C(=O)N1[C@@H]3c1cccc(O)c1 (racemic) [Example 152, (3aSR,10RS)-6-Ethoxy-10-(3-hydroxy-phenyl)-2-(2-isopropylamino-ethyl)-3a-methyl-3a,4,9,10-tetrahydro-2,9,10a-triaza-cyclopenta[b]fluorene-1,3-dione] | ≤ 39.8
CCOc1ccc2[nH]c3c(c2c1)C[C@@]1(C)C(=O)N(CCNCC(C)C)C(=O)N1[C@@H]3c1cccc(O)c1 (racemic) [Example 153, (3aSR,10RS)-6-Ethoxy-10-(3-hydroxy-phenyl)-2-(2-isobutylamino-ethyl)-3a-methyl-3a,4,9,10-tetrahydro-2,9,10a-triaza-cyclopenta[b]fluorene-1,3-dione] | ≤ 39.8
CCOc1ccc2[nH]c3c(c2c1)C[C@@]1(C)C(=O)N(CCNC2CCC2)C(=O)N1[C@@H]3c1cccc(O)c1 (racemic) [Example 155, (3aSR,10RS)-2-(2-Cyclobutylamino-ethyl)-6-ethoxy-10-(3-hydroxy-phenyl)-3a-methyl-3a,4,9,10-tetrahydro-2,9,10a-triaza-cyclopenta[b]fluorene-1,3-dione] | ≤ 39.8
CCOc1ccc2[nH]c3c(c2c1)C[C@@]1(C)C(=O)N(CCNC(C)(C)C)C(=O)N1[C@@H]3c1cccc(O)c1 (racemic) [Example 156, (3aSR,10RS)-2-(2-tert-Butylamino-ethyl)-6-ethoxy-10-(3-hydroxy-phenyl)-3a-methyl-3a,4,9,10-tetrahydro-2,9,10a-triaza-cyclopenta[b]fluorene-1,3-dione] | ≤ 39.8
C=CCNCCN1C(=O)N2[C@H](c3cccc(O)c3)c3[nH]c4ccc(OCC)cc4c3C[C@@]2(C)C1=O (racemic) [Example 157, (3aSR,10RS)-2-(2-Allylamino-ethyl)-6-ethoxy-10-(3-hydroxy-phenyl)-3a-methyl-3a,4,9,10-tetrahydro-2,9,10a-triaza-cyclopenta[b]fluorene-1,3-dione] | ≤ 39.8
CCOc1ccc2[nH]c3c(c2c1)C[C@@]1(C)C(=O)N(CCN(C)CC)C(=O)N1[C@@H]3c1cccc(O)c1 (racemic) [Example 158, (3aSR,10RS)-6-Ethoxy-2-[2-(ethyl-methyl-amino)-ethyl]-10-(3-hydroxy-phenyl)-3a-methyl-3a,4,9,10-tetrahydro-2,9,10a-triaza-cyclopenta[b]fluorene-1,3-dione] | ≤ 39.8
CCOc1ccc2[nH]c3c(c2c1)C[C@@]1(C)C(=O)N(CCNCCO)C(=O)N1[C@@H]3c1cccc(O)c1 (racemic) [Example 159, (3aSR,10RS)-6-Ethoxy-2-[2-(2-hydroxy-ethylamino)-ethyl]-10-(3-hydroxy-phenyl)-3a-methyl-3a,4,9,10-tetrahydro-2,9,10a-triaza-cyclopenta[b]fluorene-1,3-dione] | 39.8 to 251
CCOc1ccc2[nH]c3c(c2c1)C[C@@]1(C)C(=O)N(CCNCCOC)C(=O)N1[C@@H]3c1cccc(O)c1 (racemic) [Example 160, (3aSR,10RS)-6-Ethoxy-10-(3-hydroxy-phenyl)-2-[2-(2-methoxy-ethylamino)-ethyl]-3a-methyl-3a,4,9,10-tetrahydro-2,9,10a-triaza-cyclopenta[b]fluorene-1,3-dione] | 39.8 to 251
CCOc1ccc2[nH]c3c(c2c1)C[C@@]1(C)C(=O)N(CCNC2CC2)C(=O)N1[C@@H]3c1cccc(O)c1 (racemic) [Example 161, (3aSR,10RS)-2-(2-Cyclopropylamino-ethyl)-6-ethoxy-10-(3-hydroxy-phenyl)-3a-methyl-3a,4,9,10-tetrahydro-2,9,10a-triaza-cyclopenta[b]fluorene-1,3-dione] | 39.8 to 251
CCOc1ccc2[nH]c3c(c2c1)C[C@@]1(C)C(=O)N(CCN(CC)CC)C(=O)N1[C@@H]3c1cccc(O)c1 (racemic) [Example 162, (3aSR,10RS)-2-(2-Diethylamino-ethyl)-6-ethoxy-10-(3-hydroxy-phenyl)-3a-methyl-3a,4,9,10-tetrahydro-2,9,10a-triaza-cyclopenta[b]fluorene-1,3-dione] | 39.8 to 251
CCOc1ccc2[nH]c3c(c2c1)C[C@@]1(C)C(=O)N(CCN(C)C(C)C)C(=O)N1[C@@H]3c1cccc(O)c1 (racemic) [Example 163, (3aSR,10RS)-6-Ethoxy-10-(3-hydroxy-phenyl)-2-[2-(isopropyl-methyl-amino)-ethyl]-3a-methyl-3a,4,9,10-tetrahydro-2,9,10a-triaza-cyclopenta[b]fluorene-1,3-dione] | ≤ 39.8
CCOc1ccc2[nH]c3c(c2c1)C[C@@]1(C)C(=O)N(CCN2CCCCC2)C(=O)N1[C@@H]3c1cccc(O)c1 (racemic) [Example 164, (3aSR,10RS)-6-Ethoxy-10-(3-hydroxy-phenyl)-3a-methyl-2-(2-piperidin-1-yl-ethyl)-3a,4,9,10-tetrahydro-2,9,10a-triaza-cyclopenta[b]fluorene-1,3-dione] | 39.8 to 251
CCOc1ccc2[nH]c3c(c2c1)C[C@@]1(C)C(=O)N(CCN2CC=CCC2)C(=O)N1[C@@H]3c1cccc(O)c1 (racemic) [Example 165, (3aSR,10RS)-2-[2-(3,6-Dihydro-2H-pyridin-1-yl)-ethyl]-6-ethoxy-10-(3-hydroxy-phenyl)-3a-methyl-3a,4,9,10-tetrahydro-2,9,10a-triaza-cyclopenta[b]fluorene-1,3-dione] | 39.8 to 251
CCOc1ccc2[nH]c3c(c2c1)C[C@@]1(C)C(=O)N(CCN2CCCCCC2)C(=O)N1[C@@H]3c1cccc(O)c1 (racemic) [Example 166, (3aSR,10RS)-2-(2-Azepan-1-yl-ethyl)-6-ethoxy-10-(3-hydroxy-phenyl)-3a-methyl-3a,4,9,10-tetrahydro-2,9,10a-triaza-cyclopenta[b]fluorene-1,3-dione] | 39.8 to 251
COc1ccc2[nH]c3c(c2c1)C[C@@]1(C)C(=O)N(CCCNC(C)(C)C)C(=O)N1[C@@H]3c1cccc(O)c1 (racemic) [Example 167, (3aSR,10RS)-2-(3-tert-Butylamino-propyl)-10-(3-hydroxy-phenyl)-6-methoxy-3a-methyl-3a,4,9,10-tetrahydro-2,9,10a-triaza-cyclopenta[b]fluorene-1,3-dione] | ≤ 39.8
CCN(CCO)CCCN1C(=O)N2[C@H](c3cccc(O)c3)c3[nH]c4ccc(Cl)cc4c3C[C@@]2(C)C1=O (racemic) [Example 168, (3aSR,10RS)-6-Chloro-2-{3-[ethyl-(2-hydroxy-ethyl)-amino]-propyl}-10-(3-hydroxy-phenyl)-3a-methyl-3a,4,9,10-tetrahydro-2,9,10a-triaza-cyclopenta[b]fluorene-1,3-dione] | ≤ 39.8
C=CCN(C)CCCN1C(=O)N2[C@H](c3cccc(O)c3)c3[nH]c4ccc(Cl)cc4c3C[C@@]2(C)C1=O (racemic) [Example 169, (3aSR,10RS)-2-[3-(Allyl-methyl-amino)-propyl]-6-chloro-10-(3-hydroxy-phenyl)-3a-methyl-3a,4,9,10-tetrahydro-2,9,10a-triaza-cyclopenta[b]fluorene-1,3-dione] | ≤ 39.8
